Measurements as given in US8754068B2, “Modified C-3 betulinic acid derivatives as HIV maturation inhibitors” (priority 2010, dated 2014).
pEC50: −log10 of the molar value.

System: recombinant NL4-3 virus (Renilla luciferase in nef, Gag P373S)
Experiment: HIV cell culture assay (luciferase reporter virus in MT-2 cells)
Assay type: cell-based
Settings: NL43
How it was run: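 MT-2 cells in RPMI/10% FBS were infected with recombinant NL4-3 (NLRluc), produced by 293T transfection and titered in MT-2 by luciferase. Serial inhibitor dilutions were present throughout a 4–5 day infection. Antiviral activity was quantified as Renilla luciferase signal via a modified Dual Luciferase read.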

C=C(C)[C@@H]1CC[C@]2(C(=O)OC)CC[C@]3(C)[C@H](CC[C@@H]4[C@@]5(C)CC=C(c6ccc(C(=O)O)cc6)C(C)(C)[C@@H]5CC[C@]43C)[C@@H]12 [Example 1b, 4-((1R,3aS,5aR,5bR,7aR,11aS,13aR,13bR)-3a-(methoxycarbonyl)-5a,5b,8,8,11a-pentamethyl-1-(prop-1-en-2-yl)-2,3,3a,4,5,5a,5b,6,7,7a,8,11,11a,11b,12,13,13a,13b-octadecahydro-1H-cyclopenta[a]chrysen-9-yl)benzoic acid] and C=C(C)[C@@H]1CC[C@]2(C(=O)O)CC[C@]3(C)[C@H](CC[C@@H]4[C@@]5(C)CC=C(c6ccc(C(=O)O)cc6)C(C)(C)[C@@H]5CC[C@]43C)[C@@H]12 [Example 2b, (1R,3aS,5aR,5bR,7aR,11aS,13aR,13bR)-9-(4-carboxyphenyl)-5a,5b,8,8,11a-pentamethyl-1-(prop-1-en-2-yl)-2,3,3a,4,5,5a,5b,6,7,7a,8,11,11a,11b,12,13,13a,13b-octadecahydro-1H-cyclopenta[a]chrysene-3a-carboxylic acid] cannot be ordered by pEC50: greater than 6.00 for the first, greater than 6.00 for the second.

C=C(C)[C@@H]1CC[C@]2(CO)CC[C@]3(C)[C@H](CC[C@@H]4[C@@]5(C)CC=C(c6cc(C(=O)O)no6)C(C)(C)[C@@H]5CC[C@]43C)[C@@H]12 [Example 9, 5-((1R,3aS,5aR,5bR,7aR,11aS,11bR,13aR,13bR)-3a-(hydroxymethyl)-5a,5b,8,8,11a-pentamethyl-1-(prop-1-en-2-yl)-2,3,3a,4,5,5a,5b,6,7,7a,8,11,11a,11b,12,13,13a,13b-octadecahydro-1H-cyclopenta[a]chrysen-9-yl)isoxazole-3-carboxylic acid] and C=C(C)[C@@H]1CC[C@]2(CO)CC[C@]3(C)[C@H](CC[C@@H]4[C@@]5(C)CC=C(c6ccc(C(=O)O)c(OC)c6)C(C)(C)[C@@H]5CC[C@]43C)[C@@H]12 [Example 5o, 4-((1R,3aS,5aR,5bR,7aR,11aS,11bR,13aR,13bR)-3a-(hydroxymethyl)-5a,5b,8,8,11a-pentamethyl-1-(prop-1-en-2-yl)-2,3,3a,4,5,5a,5b,6,7,7a,8,11,11a,11b,12,13,13a,13b-octadecahydro-1H-cyclopenta[a]chrysen-9-yl)-2-methoxybenzoic acid] cannot be ordered by pEC50: greater than 6.00 for the first, 6.30 for the second.

C=C(C)[C@@H]1CC[C@]2(C(=O)O)CC[C@]3(C)[C@H](CC[C@@H]4[C@@]5(C)CC=C(c6cccc(CCC(=O)O)c6)C(C)(C)[C@@H]5CC[C@]43C)[C@@H]12 [Example 4k, (1R,3aS,5aR,5bR,7aR,11aS,11bR,13aR,13bR)-9-(3-(2-carboxyethyl)phenyl)-5a,5b,8,8,11a-pentamethyl-1-(prop-1-en-2-yl)-2,3,3a,4,5,5a,5b,6,7,7a,8,11,11a,11b,12,13,13a,13b-octadecahydro-1H-cyclopenta[a]chrysene-3a-carboxylic acid] and C=C(C)[C@@H]1CC[C@]2(C(=O)O)CC[C@]3(C)[C@H](CC[C@@H]4[C@@]5(C)CC=C(c6ccc(C(=O)O)c(F)c6)C(C)(C)[C@@H]5CC[C@]43C)[C@@H]12 [Example 4d, (1R,3aS,5aR,5bR,7aR,11aS,11bR,13aR,13bR)-9-(4-carboxy-3-fluorophenyl)-5a,5b,8,8,11a-pentamethyl-1-(prop-1-en-2-yl)-2,3,3a,4,5,5a,5b,6,7,7a,8,11,11a,11b,12,13,13a,13b-octadecahydro-1H-cyclopenta[a]chrysene-3a-carboxylic acid] cannot be ordered by pEC50: greater than 6.00 for the first, greater than 6.00 for the second.

Going from C=C(C)[C@@H]1CC[C@]2(C(=O)O)CC[C@]3(C)[C@H](CC[C@@H]4[C@@]5(C)CC=C(c6ccc(C(=O)NS(=O)(=O)C(C)C)cc6)C(C)(C)[C@@H]5CC[C@]43C)[C@@H]12 [Example 6a, (1R,3aS,5aR,5bR,7aR,11aS,13aR,13bR)-9-(4-(isopropylsulfonylcarbamoyl)phenyl)-5a,5b,8,8,11a-pentamethyl-1-(prop-1-en-2-yl)-2,3,3a,4,5,5a,5b,6,7,7a,8,11,11a,11b,12,13,13a,13b-octadecahydro-1H-cyclopenta[a]chrysene-3a-carboxylic acid] to C=C(C)[C@@H]1CC[C@]2(C(=O)O)CC[C@]3(C)[C@H](CC[C@@H]4[C@@]5(C)CC=C(c6ccc(NC(=O)CCC(=O)O)cc6)C(C)(C)[C@@H]5CC[C@]43C)[C@@H]12 [Example 4b, (1R,3aS,5aR,5bR,7aR,11aS,11bR,13aR,13bR)-9-(4-(3-carboxypropanamido)phenyl)-5a,5b,8,8,11a-pentamethyl-1-(prop-1-en-2-yl)-2,3,3a,4,5,5a,5b,6,7,7a,8,11,11a,11b,12,13,13a,13b-octadecahydro-1H-cyclopenta[a]chrysene-3a-carboxylic acid], the pEC50 falls from greater than 6.00 to less than 6.00. The first is the more potent here.

Going from CC(C)[C@@H]1CC[C@]2(C(=O)O)CC[C@]3(C)[C@H](CC[C@@H]4[C@@]5(C)CC[C@H](c6cccc(C(=O)O)c6)C(C)(C)[C@@H]5CC[C@]43C)[C@@H]12 [Example 3a, (3aS,5aR,5bR,7aS,9S,11aS,13aR,13bR)-9-(3-carboxyphenyl)-1-isopropyl-5a,5b,8,8,11a-pentamethylicosahydro-1H-cyclopenta[a]chrysene-3a-carboxylic acid] to C=C(C)[C@@H]1CC[C@]2(CO)CC[C@]3(C)[C@H](CC[C@@H]4[C@@]5(C)CC=C(c6ccc(C(=O)O)c(C(F)(F)F)c6)C(C)(C)[C@@H]5CC[C@]43C)[C@@H]12 [Example 5s, 4-((1R,3aS,5aR,5bR,7aR,11aS,11bR,13aR,13bR)-3a-(hydroxymethyl)-5a,5b,8,8,11a-pentamethyl-1-(prop-1-en-2-yl)-2,3,3a,4,5,5a,5b,6,7,7a,8,11,11a,11b,12,13,13a,13b-octadecahydro-1H-cyclopenta[a]chrysen-9-yl)-2-(trifluoromethyl)benzoic acid], the pEC50 rises from 5.70 to greater than 6.00.

C=C(C)[C@@H]1CC[C@]2(CO)CC[C@]3(C)[C@H](CC[C@@H]4[C@@]5(C)CC=C(c6ccc(-c7nn[nH]n7)cc6)C(C)(C)[C@@H]5CC[C@]43C)[C@@H]12 [Example 5l, ((1R,3aS,5aR,5bR,7aR,11aS,11bR,13aR,13bR)-9-(4-(2H-tetrazol-5-yl)phenyl)-5a,5b,8,8,11a-pentamethyl-1-(prop-1-en-2-yl)-2,3,3a,4,5,5a,5b,6,7,7a,8,11,11a,11b,12,13,13a,13b-octadecahydro-1H-cyclopenta[a]chrysen-3a-yl)methanol] and C=C(C)[C@@H]1CC[C@]2(CO)CC[C@]3(C)[C@H](CC[C@@H]4[C@@]5(C)CC=C(c6ccc(O)nc6)C(C)(C)[C@@H]5CC[C@]43C)[C@@H]12 [Example 5e, 5-((1R,3aS,5aR,5bR,7aR,11aS,13aR,13bR)-3a-(hydroxymethyl)-5a,5b,8,8,11a-pentamethyl-1-(prop-1-en-2-yl)-2,3,3a,4,5,5a,5b,6,7,7a,8,11,11a,11b,12,13,13a,13b-octadecahydro-1H-cyclopenta[a]chrysen-9-yl)pyridin-2-ol] cannot be ordered by pEC50: less than 6.00 for the first, less than 6.00 for the second.
